Like-named read-outs stand apart in the source and are kept apart here.
Columns and labels:
[1] = tested on: DU 145 prostate cancer cell line; experiment: Cytotoxicity, SRB assay, DU 145; type: cell-based, human
Description: (§1) The SRB Assay was used to determine cell number during cytotoxocity experiments. The following protocol was used: • 1. […] Experimental cultures were cultured in 96-well microtiter plates (200 uL growth medium per well; 1,000-200,000 cells per well). • 3. Cultures were fixed with 50 uL 50% TCA (4° C.). (see cell fixation protocol for details). • 4. Fixed cells were stained with 50 uL 0.4% (wt/vol) SRB in 1% acetic acid for 10 minutes. • 5. SRB was removed and the cultures were quickly* rinsed 5 times with 1% acetic acid to remove unbound dye.** • 6. Cultures were air-dried overnight until there is no visible moisture. • 7. […] Absorbance was read at 540 nm. • * quickly performing rinsing process is to prevent desorption of protein-bound SRB • ** completely remove residual wash solution by sharply flicking plates over sink. Fixation of Cells Attached to the Plastic Substratum
(§2) The following protocol was used for fixing cells: • a. 50 uL of 50% TCA (4° C.) were gently layered on the top of growth medium in each well to make a final TCA concentration of 10%. • b. Cultures were incubated at 4° C. for 1 hour. • c. Cultures were washed 5 times with tap water to remove TCA, growth medium, low-molecular-weight metabolites, and serum protein. • d. Plates were air-dried until there was no visible moisture.

[2] = tested on: PC-3 bone metastatic prostate cancer cell line; experiment: Cytotoxicity, SRB assay, PC-3; type: cell-based, human
Description: PPC-1, LNCaP, TSU, PC-3, and DU145 were grown in PRMI-1640 medium containing 2 mM L-glutamine supplemented with 10% fetal bovine serum (FBS). Cells were maintained in a 5% CO2/95% air humidified atomosphere at 37° C.
(§3) The SRB Assay was used to determine cell number during cytotoxocity experiments. The following protocol was used: • 1. Cells were detached with 0.25% trypsin. • 2. Experimental cultures were cultured in 96-well microtiter plates (200 uL growth medium per well; 1,000-200,000 cells per well). • 3. Cultures were fixed with 50 uL 50% TCA (4° C.). (see cell fixation protocol for details). • 4. Fixed cells were stained with 50 uL 0.4% (wt/vol) SRB in 1% acetic acid for 10 minutes. • 5. SRB was removed and the cultures were quickly* rinsed 5 times with 1% acetic acid to remove unbound dye.** • 6. Cultures were air-dried overnight until there is no visible moisture. • 7. The cellular protein-bound SRB was dissolved with 200 uL unbuffered Tris base (10 mM, pH 10.5) for 30 minutes on a rocking platform shaker. • 8. Absorbance was read at 540 nm. • * quickly performing rinsing process is to prevent desorption of protein-bound SRB • ** completely remove residual wash solution by sharply flicking plates over sink. Fixation of Cells Attached to the Plastic Substratum
as §2

[3] = tested on: TSU prostate cancer cell line; experiment: Cytotoxicity, SRB assay, TSU; type: cell-based, human; settings: read-out: IC50 TSU
Description: as §1, §2

[4] = tested on: PPC-1 prostate cancer cell line; experiment: Cytotoxicity, SRB assay, PPC-1; type: cell-based, human
Description: as §1, §2

[5] = tested on: AR-expressing LNCaP prostate cancer cell line; experiment: Cytotoxicity, SRB assay, LNCaP; type: cell-based, human
Description: as §1, §2

[6] = tested on: TCCSUP bladder cancer cell line; experiment: Cytotoxicity, SRB assay, TCCSUP; type: cell-based, human; settings: read-out: IC50 TCCSUP
Description: as §1, §2

[7] = tested on: HT-29 colorectal adenocarcinoma cell line; experiment: Cytotoxicity, SRB assay, HT-29; type: cell-based, human
Description: as §1, §2

CV-1 control cell line = experiment: Cytotoxicity, SRB assay, CV-1 control; type: cell-based, African green monkey
Description: as §3, §2

[8] = tested on: MCF-7 breast adenocarcinoma cell line; experiment: Cytotoxicity, SRB assay, MCF-7; type: cell-based; settings: Homo sapiens, Example 4
Description: as §3, §2

LNCaP cells = experiment: Induction of apoptosis, LNCaP; type: cell-based, human
Description: (§4) The ability of DJ 1-31, DJ 1-29, S-NTBA and Compound V to induce apoptosis in different prostate cancer cell lines (DU 145, PC-3, TSU, PPC-1 and LNCaP), in other cancer cell lines (TCCSUP, HT-29 and MCF-7) and in a control cell line (CV-1) was determined and the results are shown in Table 6.

DU 145 cells = experiment: Induction of apoptosis, DU 145; type: cell-based, human
Description: as §4

PC-3 cells = experiment: Induction of apoptosis, PC-3; type: cell-based, human
Description: as §4

PPC-1 cells = experiment: Induction of apoptosis, PPC-1; type: cell-based, human
Description: as §4

TSU cells = experiment: Induction of apoptosis, TSU; type: cell-based, human
Description: as §4

HT-29 cells = experiment: Induction of apoptosis, HT-29; type: cell-based, human
Description: as §4

TCCSUP cells = experiment: Induction of apoptosis, TCCSUP; type: cell-based, human
Description: as §4

MCF-7 cells = experiment: Induction of apoptosis, MCF-7; type: cell-based
Description: as §4

CV-1 cells = experiment: Induction of apoptosis, CV-1; type: cell-based, African green monkey
Description: as §4

[9] = Homo sapiens, DU-145, read-out: IC50 DU145
[10] = Homo sapiens, read-out: IC50 PC-3
[11] = Homo sapiens, PPC-1, read-out: IC50 PPC-1
[12] = Homo sapiens, LNCaP, 24 h, read-out: IC50 LNCaP 24 hr treatment
[13] = Homo sapiens, LNCaP, 144 h, read-out: IC50 LNCaP 6 day treatment
[14] = Homo sapiens, LNCaP, read-out: IC50 LNCaP
[15] = Homo sapiens, HT-29, read-out: IC50 HT-29

Which results are given for O=c1[nH]cc(F)c(=O)[nH]1 [Compound 5-FU, reference compound]?
IC50 ([1]; Table 2A, Example 1, read-out: IC50 DU145): 4.5 ± 0.3 µM; IC50 ([2]; 24 hr treatment, Example 3, read-out: IC50 PC-3 24 hr treatment): 20 to 50 µM; IC50 ([2]; 4 day treatment, Example 3, read-out: IC50 PC-3 4 day treatment): 10.9 µM; IC50 ([2]; Table 2A, Example 1, read-out: IC50 PC-3): 10.5 ± 0.6 µM; IC50 ([3]; Table 2A, Example 1): 2.7 ± 0.6 µM; IC50 ([4]; Table 2A, Example 1, read-out: IC50 PPC-1): 5.1 ± 0.5 µM; IC50 ([5]; Table 2A, Example 1, read-out: IC50 LNCaP): 4.1 ± 0.6 µM; IC50 ([6]; Table 2B, Example 1): 3.6 ± 0.7 µM; IC50 ([7]; Table 2B, Example 1, read-out: IC50 HT-29): 5.4 ± 1.1 µM; IC50 (CV-1 control cell line; Table 2B, Example 1, read-out: IC50 CV-1 (Control)): 5.4 ± 0.3 µM

For C[C@](O)(COc1ccc(N=C=S)cc1)C(=O)Nc1ccc([N+](=O)[O-])c(C(F)(F)F)c1 [Compound V], which IC50 ([1]; Homo sapiens, DU-145, 24 h, read-out: IC50 DU 145) is on record?
The IC50 was 62.1 ± 0.6 µM.

And the IC50 ([1]; Homo sapiens, DU-145, 96 h, read-out: IC50 DU 145)?
Its IC50 is 69.7 ± 6.5 µM.

And the IC50 [1, 9]?
Its IC50 is 74.8 ± 1.2 µM.

And the IC50 ([2]; Homo sapiens, 24 h, read-out: IC50 PC-3)?
The IC50 was 47.8 ± 4.2 µM.

What about the IC50 ([2]; Homo sapiens, 96 h, read-out: IC50 PC-3) of the same molecule?
Its IC50 is 48.5 ± 10.1 µM.

And the IC50 [2, 10]?
The IC50 was 59 ± 6 µM.

And the IC50 ([3]; Homo sapiens, 24 h)?
The IC50 was 54.1 ± 5.5 µM.

What about the IC50 ([3]; Homo sapiens, 96 h) of the same molecule?
The IC50 was 55 ± 0.8 µM.

And the IC50 ([3]; Homo sapiens)?
The IC50 was 56.9 ± 2.9 µM.

What about the IC50 ([4]; Homo sapiens, PPC-1, 24 h, read-out: IC50 PPC-1) of the same molecule?
Its IC50 is 63.7 ± 4.6 µM.

And the IC50 ([4]; Homo sapiens, PPC-1, 96 h, read-out: IC50 PPC-1)?
Its IC50 is 62.6 ± 4.9 µM.

And the IC50 [4, 11]?
The IC50 was 58.1 ± 5.9 µM.

And the IC50 ([5]; Homo sapiens, LNCaP, 24 h, read-out: IC50 LNCaP)?
The IC50 was 19.8 ± 10.5 µM.

And the IC50 [5, 12]?
Its IC50 is 39.6 µM.

And the IC50 ([5]; Homo sapiens, LNCaP, 96 h, read-out: IC50 LNCaP)?
Its IC50 is 12.8 ± 4.1 µM.

What about the IC50 [5, 13] of the same molecule?
Its IC50 is 33.6 µM.

What about the IC50 [5, 14] of the same molecule?
Its IC50 is 26 ± 8.3 µM.

And the “Selectivity for the AR-expressing LNCaP prostate cancer cell line” value ([5]; compared with prostate cancer cell lines not expressing AR, non-prostate cancer cell lines, control cell line)?
The value was “highly selective”.

What about the IC50 ([6]; Homo sapiens, TCC-SUP, 24 h) of the same molecule?
The IC50 was 90.4 ± 2.2 µM.

What about the IC50 ([6]; Homo sapiens, TCC-SUP, 96 h) of the same molecule?
The IC50 was 78.1 ± 11.2 µM.

What about the IC50 ([6]; Homo sapiens, TCC-SUP) of the same molecule?
Its IC50 is over 100 µM.

What about the IC50 ([7]; Homo sapiens, HT-29, 24 h, read-out: IC50 HT-29) of the same molecule?
The IC50 was 85.5 ± 4.5 µM.

And the IC50 ([7]; Homo sapiens, HT-29, 96 h, read-out: IC50 HT-29)?
The IC50 was 71 ± 1.2 µM.

And the IC50 [7, 15]?
The IC50 was 55 ± 1.7 µM.

What about the IC50 (CV-1 control cell line; Chlorocebus sabaeus, 24 h, read-out: IC50 CV-1) of the same molecule?
Its IC50 is over 100 µM.

And the IC50 (CV-1 control cell line; Chlorocebus sabaeus, 96 h, read-out: IC50 CV-1)?
The IC50 was over 100 µM.

What about the IC50 ([8]; MCF7, 24 h, drug incubation time 1 day) of the same molecule?
The IC50 was 32.7 ± 1.9 µM.

What about the IC50 ([8]; MCF7, 96 h, drug incubation time 4 day) of the same molecule?
Its IC50 is 39.4 ± 5.4 µM.

What about the “Enrichment factor LNCaP” value (LNCaP cells) of the same molecule?
The value was 2.000.

And the “Enrichment factor DU 145” value (DU 145 cells)?
Its value is 5.071.

What about the “Enrichment factor PC-3” value (PC-3 cells) of the same molecule?
The value was 2.500.

And the “Enrichment factor PPC-1” value (PPC-1 cells)?
Its value is 1.749.

And the “Enrichment factor TSU” value (TSU cells)?
Its value is 1.167.

And the “Enrichment factor HT-29” value (HT-29 cells)?
The value was 1.410.

And the “Enrichment factor TCCSUP” value (TCCSUP cells)?
The value was 1.176.

What about the “Enrichment factor MCF-7” value (MCF-7 cells) of the same molecule?
The value was 1.926.

What about the “Enrichment factor CV-1” value (CV-1 cells) of the same molecule?
Its value is 6.548.

For C[C@](O)(CSc1ccc(NC(=O)CBr)cc1)C(=O)Nc1ccc(C#N)c(C(F)(F)F)c1 [R-CTF-T-BA-1], which IC50 [1, 9] is on record?
Its IC50 is 3.1 ± 0.1 µM.

What about the IC50 ([2]; Homo sapiens, 24 h, read-out: IC50 PC-3 24 hr treatment) of the same molecule?
Its IC50 is 22.1 µM.

What about the IC50 ([2]; Homo sapiens, 96 h, read-out: IC50 PC-3 4 day treatment) of the same molecule?
Its IC50 is 16.8 µM.

And the IC50 [2, 10]?
Its IC50 is 2.6 ± 0.1 µM.

What about the IC50 ([3]; Homo sapiens) of the same molecule?
The IC50 was 0.6 ± 0.1 µM.

And the IC50 [4, 11]?
The IC50 was 1.3 ± 0.1 µM.

And the IC50 [5, 12]?
Its IC50 is 11.2 µM.

What about the IC50 [5, 13] of the same molecule?
The IC50 was 8.1 µM.

And the IC50 [5, 14]?
Its IC50 is 3.2 ± 0.4 µM.

What about the IC50 ([6]; Homo sapiens, TCC-SUP) of the same molecule?
Its IC50 is 3.8 ± 0.5 µM.

What about the IC50 [7, 15] of the same molecule?
The IC50 was 1.6 ± 0.03 µM.

And the IC50 (CV-1 control cell line; Chlorocebus sabaeus, 24 h, read-out: IC50 CV-1 24 hr treatment)?
Its IC50 is 23.4 ± 1.6 µM.

What about the IC50 (CV-1 control cell line; Chlorocebus sabaeus, 96 h, read-out: IC50 CV-1 4 day treatment) of the same molecule?
The IC50 was 13.9 µM.

What about the IC50 (CV-1 control cell line; Chlorocebus sabaeus, read-out: IC50 CV-1 (Control)) of the same molecule?
Its IC50 is 10.8 ± 0.5 µM.
